Results from patent publication US9212201B2, “Antifungal and antiparasitic polyene macrolides” (priority 2010, dated 2015).
≈ marks a conversion by molar mass, not a printed value.

Legend:
Assay in all cases: In vitro antifungal susceptibility CLSI M27-A2 (MIC, MFC)
Format in all cases: cell-based
C. glabrata = C. glabrata (10)
C. tropicalis = C. tropicalis (10)
C. albicans = C. albicans (10)
C. kefyr = C. kefyr (10)
C. parapsilosis = C. parapsilosis (10)
C. rugosa = C. rugosa (2)
C. guilliermondii = C. guilliermondii (2)
C. krusei = C. krusei (10)
C. lusitaniae = C. lusitaniae (10)
[1] = test system: Other Candida species (C. lipolytica, C. sake, C. sphaerica, C. norvegica); conditions: Other Candida spp. (4)

## C[C@@H](c1ncncc1F)[C@](O)(Cn1cncn1)c1ccc(F)cc1F [Voriconazole, voriconazole]
C. glabrata
  MIC Range: 0.12 to 2 µg/mL
C. glabrata; Nakaseomyces glabratus, read-out: GM (geometric mean MIC)
  MIC: 0.56 µg/mL (≈ 1.6 µM)
C. glabrata; Nakaseomyces glabratus, read-out: MIC50
  MIC50: 0.5 µg/mL (≈ 1.43 µM)
C. glabrata; Nakaseomyces glabratus, read-out: MIC90
  MIC90: 0.5 µg/mL (≈ 1.43 µM)
C. tropicalis
  MIC Range: <0.03 to 0.5 µg/mL
C. tropicalis; Candida tropicalis, read-out: GM (geometric mean MIC)
  MIC: 0.13 µg/mL (≈ 0.372 µM)
C. tropicalis; Candida tropicalis, read-out: MIC50
  MIC50: 0.06 µg/mL (≈ 0.172 µM)
C. tropicalis; Candida tropicalis, read-out: MIC90
  MIC90: 0.12 µg/mL (≈ 0.344 µM)
C. albicans
  MIC Range: <0.03 to 0.25 µg/mL
C. albicans; Candida albicans, read-out: GM (geometric mean MIC)
  MIC: 0.06 µg/mL (≈ 0.172 µM)
C. albicans; Candida albicans, read-out: MIC50
  MIC50: 0.03 µg/mL (≈ 0.0859 µM)
C. albicans; Candida albicans, read-out: MIC90
  MIC90: 0.06 µg/mL (≈ 0.172 µM)
C. kefyr
  MIC Range: <0.03 to 16 µg/mL
C. kefyr; Kluyveromyces marxianus, read-out: GM (geometric mean MIC)
  MIC: 1.63 µg/mL (≈ 4.67 µM)
C. kefyr; Kluyveromyces marxianus, read-out: MIC50
  MIC50: < 0.03 µg/mL
C. kefyr; Kluyveromyces marxianus, read-out: MIC90
  MIC90: 0.6 µg/mL (≈ 1.72 µM)
C. parapsilosis
  MIC Range: <0.03 to 0.12 µg/mL
C. parapsilosis; Lodderomyces parapsilosis, read-out: GM (geometric mean MIC)
  MIC: 0.04 µg/mL (≈ 0.115 µM)
C. parapsilosis; Lodderomyces parapsilosis, read-out: MIC50
  MIC50: < 0.03 µg/mL
C. parapsilosis; Lodderomyces parapsilosis, read-out: MIC90
  MIC90: 0.03 µg/mL (≈ 0.0859 µM)
C. rugosa
  MIC Range: 0.25 µg/mL (≈ 0.716 µM)
C. rugosa; Diutina rugosa, read-out: GM (geometric mean MIC)
  MIC: 0.25 µg/mL (≈ 0.716 µM)
C. guilliermondii
  MIC Range: 0.06 µg/mL (≈ 0.172 µM)
C. guilliermondii; Meyerozyma guilliermondii, read-out: GM (geometric mean MIC)
  MIC: 0.06 µg/mL (≈ 0.172 µM)
C. krusei
  MIC Range: 0.25 to 0.5 µg/mL
C. krusei; Pichia kudriavzevii, read-out: GM (geometric mean MIC)
  MIC: 0.425 µg/mL (≈ 1.22 µM)
C. krusei; Pichia kudriavzevii, read-out: MIC50
  MIC50: 0.25 µg/mL (≈ 0.716 µM)
C. krusei; Pichia kudriavzevii, read-out: MIC90
  MIC90: 0.5 µg/mL (≈ 1.43 µM)
C. lusitaniae
  MIC Range: <0.03 to 0.06 µg/mL
C. lusitaniae; Clavispora lusitaniae, read-out: GM (geometric mean MIC)
  MIC: 0.03 µg/mL (≈ 0.0859 µM)
C. lusitaniae; Clavispora lusitaniae, read-out: MIC50
  MIC50: < 0.03 µg/mL
C. lusitaniae; Clavispora lusitaniae, read-out: MIC90
  MIC90: 0.03 µg/mL (≈ 0.0859 µM)
[1]
  MIC Range: <0.03 to 1.0 µg/mL
[1]; read-out: GM (geometric mean MIC)
  MIC: 0.39 µg/mL (≈ 1.12 µM)
[1]; read-out: MIC50
  MIC50: 0.06 µg/mL (≈ 0.172 µM)
